Experimental data published in patent US20040198663A1, “Method of treating cardiac ischemia by using erythropoietin” (priority 2003, published 2004).

Test system: hearts from normoxic infant rabbits
Experiment: Isolated Langendorff-perfused heart, 30 min global no-flow ischemia and 35 min reperfusion, normoxic hearts
Parameters: species or system New Zealand White rabbit
Settings: for POST DRUG Coronary flow rate / POST DRUG Heart rate / POST DRUG Left ventricle developed pressure / POST DRUG Right ventricle developed pressure / REPERFUSION (35 min) Coronary flow rate / REPERFUSION (35 min) Heart rate / REPERFUSION (35 min) Left ventricle developed pressure / REPERFUSION (35 min) Right ventricle developed pressure: normoxic hearts; for REPERFUSION (35 min) Coronary flow rate / REPERFUSION (35 min) Heart rate / REPERFUSION (35 min) Left ventricle developed pressure / REPERFUSION (35 min) Right ventricle developed pressure: after 30 min ischemia
Description: The study was directed to determining whether erythropoietin (0.5-10.0 U/ml) confers immediate cardioprotection in infant rabbit hearts and the contribution of protein kinases, nitric oxide synthase and potassium channels to the underlying mechanism. Hearts from normoxic infant Zealand White rabbits (n=8/group) were isolated and perfused in the Langendorff mode. Biventricular function was recorded under steady-state conditions prior to 30 minutes global no flow ischemia and 35 minutes reperfusion.
Animals. Rabbits used in the study received humane care in compliance with the “Guide for the Care and Use of Laboratory Animals” formulated by the National Research Council, 1996. Infant New Zealand White rabbits were maintained for 10 days in a normoxic (SaO2>95%) or hypoxic (SaO2<85%) environment as described in Baker et al., Circulation 99:1249-54 (1999).
Isolated heart perfusion. Isolated rabbit hearts were perfused with bicarbonate buffer at constant pressure in a retrograde manner and instrumented as described in Baker et al., Circulation 99:1249-54 (1999). Protein kinase inhibitors, potassium channel blockers or nitric oxide synthase inhibitors were added to this perfusate as needed. A 3-way tap, located immediately above the site of cannulation, allowed the entire perfusate to be diverted away from the heart to produce global, no-flow ischemia. Reperfusion was achieved by repositioning of the tap to allow perfusate to be delivered to the heart. Left and right ventricular function was monitored continuously throughout each experiment as described in Baker et al., Circulation 99:1249-54 (1999). End-diastolic pressure was initially set to 3 mmHg for 2 minutes. The balloons were then progressively inflated with a microsyringe to set end-diastolic pressures to 8 mmHg for the left ventricle and 4 mmHg for the right ventricle, with developed pressure and heart rate recorded during steady-state conditions. Coronary flow rate was measured throughout the experiment by timed collections of the coronary effluent from the right side of the heart into a graduated cylinder. Coronary flow rate was expressed as milliliters per minute per gram wet weight.
Resistance to myocardial ischemia. Hearts from infant rabbits were perfused with bicarbonate buffer, and biventricular function was monitored continuously throughout each experiment as described in Rafiee et al., Circulation 106:239-45 (2002). For concentration response studies, hearts were then perfused with erythropoietin (0.5-10.0 U/ml) for 15 minutes prior to 30 minutes ischemia and 35 minutes reperfusion. For mechanism studies with protein kinase inhibitors, potassium channel blockers or nitric oxide synthase inhibitors, hearts were perfused with drugs for 15 minutes alone followed by 15 minutes in combination with erythropoietin prior to ischemia. Hearts perfused with protein kinase inhibitors or potassium channel blockers alone in the absence of erythropoietin for 30 minutes prior to ischemia served as untreated controls for these studies. Recovery of post-ischemic left and right ventricular developed pressure was expressed as a percentage of its pre-drug, pre-ischemic value.
Assessment of ventricular function. Left and right ventricular function was monitored continuously throughout each experiment as described in Rafiee et al., Circulation 106:239-45 (2002).
Hearts from New Zealand White rabbits at 9 days of age were perfused with erythropoietin at 0, 0.5, 1.0, 2.5, 5.0, and 10.0 U/ml for 15 minutes prior to 30 minutes global ischemia and 35 minutes reperfusion. Erythropoietin (1.0 U/ml) reduced coronary flow rate prior to ischemia from 7 ml/min/g to 6 ml/min/g but had no effect on heart rate (220±18 beats/min) or developed pressure in left (106±3 mm Hg) or right (42±3 mm Hg) ventricle.

[1] = erythropoietin 1.0 U/ml, no effect

## erythropoietin: Recombinant human erythropoietin, a glycoprotein hormone, obtained from Cell Science, Inc.
1.0 U/ml for 20 minutes
  cardioprotection after 20 minutes treatment versus 15-minute treatment: no further increase in cardioprotection
1.0 U/ml prior to ischemia
  minimum treatment period needed to confer cardioprotection in both left and right ventricle: 15 min
15 min prior to ischemia
  protective concentrations of erythropoietin in the in vitro studies: 0.5-5.0 units/ml
[1]
  developed pressure in left ventricle prior to ischemia: 106±3 mm Hg
  developed pressure in right ventricle prior to ischemia: 42±3 mm Hg
  heart rate prior to ischemia: 220±18 beats/min
Erythropoietin 1.0 U/ml, reduced from 7 ml/min/g
  coronary flow rate prior to ischemia: 6 mL/min/g
EPO 0.5 U/ml for 15 min
  POST DRUG Coronary flow rate: 3 ± 1 mL/min/g
  POST DRUG Heart rate: 196 ± 21 beats/min
  POST DRUG Left ventricle developed pressure: 102 ± 8 mmHg
  POST DRUG Right ventricle developed pressure: 38 ± 5 mmHg
EPO 0.5 U/ml
  REPERFUSION (35 min) Coronary flow rate: 4 ± 1 mL/min/g
  REPERFUSION (35 min) Heart rate: 210 ± 19 beats/min
  REPERFUSION (35 min) Left ventricle developed pressure: 67 ± 3 mmHg
  REPERFUSION (35 min) Right ventricle developed pressure: 31 ± 4 mmHg
EPO 1.0 U/ml for 15 min
  POST DRUG Coronary flow rate: 3 ± 1 mL/min/g
  POST DRUG Heart rate: 199 ± 25 beats/min
  POST DRUG Left ventricle developed pressure: 99 ± 4 mmHg
  POST DRUG Right ventricle developed pressure: 38 ± 3 mmHg
EPO 1.0 U/ml
  REPERFUSION (35 min) Coronary flow rate: 5 ± 1 mL/min/g
  REPERFUSION (35 min) Heart rate: 210 ± 30 beats/min
  REPERFUSION (35 min) Left ventricle developed pressure: 71 ± 8 mmHg
  REPERFUSION (35 min) Right ventricle developed pressure: 31 ± 2 mmHg
EPO 2.5 U/ml for 15 min
  POST DRUG Coronary flow rate: 4 ± 1 mL/min/g
  POST DRUG Heart rate: 210 ± 20 beats/min
  POST DRUG Left ventricle developed pressure: 103 ± 4 mmHg
  POST DRUG Right ventricle developed pressure: 41 ± 5 mmHg
EPO 2.5 U/ml
  REPERFUSION (35 min) Coronary flow rate: 5 ± 2 mL/min/g
  REPERFUSION (35 min) Heart rate: 224 ± 14 beats/min
  REPERFUSION (35 min) Left ventricle developed pressure: 64 ± 3 mmHg
  REPERFUSION (35 min) Right ventricle developed pressure: 31 ± 3 mmHg
EPO 5.0 U/ml for 15 min
  POST DRUG Coronary flow rate: 4 ± 1 mL/min/g
  POST DRUG Heart rate: 221 ± 20 beats/min
  POST DRUG Left ventricle developed pressure: 102 ± 6 mmHg
  POST DRUG Right ventricle developed pressure: 43 ± 7 mmHg
EPO 5.0 U/ml
  REPERFUSION (35 min) Coronary flow rate: 4 ± 1 mL/min/g
  REPERFUSION (35 min) Heart rate: 226 ± 26 beats/min
  REPERFUSION (35 min) Left ventricle developed pressure: 64 ± 4 mmHg
  REPERFUSION (35 min) Right ventricle developed pressure: 32 ± 5 mmHg
EPO 10 U/ml for 15 min
  POST DRUG Coronary flow rate: 5 ± 2 mL/min/g
  POST DRUG Heart rate: 232 ± 52 beats/min
  POST DRUG Left ventricle developed pressure: 101 ± 5 mmHg
  POST DRUG Right ventricle developed pressure: 40 ± 5 mmHg
EPO 10 U/ml
  REPERFUSION (35 min) Coronary flow rate: 5 ± 1 mL/min/g
  REPERFUSION (35 min) Heart rate: 230 ± 49 beats/min
  REPERFUSION (35 min) Left ventricle developed pressure: 52 ± 3 mmHg
  REPERFUSION (35 min) Right ventricle developed pressure: 28 ± 4 mmHg
